From patent US7015306B2 (BioSynthema, Inc., priority 1999, dated 2006)
*1 amine or outer side, *2 acyl side, *3 side chain or, on linkers, in order; H or OH if unused. Where a SMILES comes first, the peptide text is derived from it. [ ]: non-standard residue; d: D form. The star is where a group is joined. Ala(piperidin-4-yl) = O=C([C@H](CC1CCN([*:3])CC1)N[*:1])[*:2]; Gly(1-amidinopiperidin-4-yl) = N=C(N)N1CCC([C@H](N)C(=O)O)CC1; DTPA = O=C(O)CN(CCN(CC(=O)O)CC(=O)O)CCN(CC(=O)O)CC(=O)*; X2 = NC[C@H]1CC[C@H](C[C@H](N[*:1])C(=O)[*:2])CC1; Tle = CC(C)(C)[C@H](N)C(=O)O

What was measured:
[1] = In vitro serum stability assay (HPLC) of In-111 labeled peptide; type: in vitro ADME, human; conditions: for remaining at 4 h: t = 4 h
Protocol: (§1) All reagents were purchased from Sigma unless otherwise noted. The peptide and ^111InCl3 in 0.05 N HCl were incubated in a sodium acetate/ascorbic acid buffer for 30 minutes at room temperature. The reaction was diluted with 5% ethanol/95% PBS before using in subsequent in vitro assays.
(§2) Human serum was purchased from Sigma (H 1388). The labeled peptide was incubated in either human serum or rat urine at 37EC for the specified amount of time. An aliquot was filtered through a 0.45 μm syringe filter prior to HPLC injection.

[2] = In vitro urine stability assay (HPLC) of In-111 labeled peptide; type: in vitro ADME; conditions: for remaining at 4 h: rat, t = 4 h
Protocol: as §1, §2

[3] = human serum, 37EC, read-out: HPLC Evaluation of Serum Stability at 37EC, Serum, t = 4 h
[4] = 37EC, read-out: HPLC Evaluation of Urine Stability at 37EC, Urine, t = 4 h

SMILES | remaining at 4 h [1, 3] [%] | HPLC Evaluation of Serum Stability at 37EC, Serum, t = 0 ([1]; human serum) [%] | HPLC Evaluation of Urine Stability at 37EC, Urine, t = 0 ([2]; rat urine) [%] | remaining at 4 h [2, 4] [%] | % of peptide at 4 hours after incubation at 37EC, Serum ([1]; human serum, 37EC, 4 hours) [%] | % of peptide at 4 hours after incubation at 37EC, Urine ([2]; rat urine, 37EC, 4 hours) [%] | further results
CC[C@H](C)[C@H](NC(=O)[C@H](Cc1ccc(O)cc1)NC(=O)[C@@H]1CCCN1C(=O)[C@H](CCCNC(=N)N)NC(=O)C(CCc1ccnc(N)n1)NC(=O)[C@@H]1CCCN1C(=O)[C@@H](CCCCN)NC(=O)CN(CCN(CCN(CC(=O)O)CC(=O)O)CC(=O)O)CC(=O)O)C(=O)N[C@@H](CC(C)C)C(=O)O (single isomer, unassigned) [In-111-DTPA-DK-P-Aba(Apy)-R-P-Y-J-L, metal not drawn] | 4.3 | 96.9 | 95.6 | 6 | – | – | –
CC[C@H](C)[C@H](NC(=O)[C@H](Cc1ccc(O)cc1)NC(=O)[C@@H]1CCCN1C(=O)[C@H](CCCNC(=N)N)NC(=O)C(NC(=O)[C@@H]1CCCN1C(=O)[C@@H](CCCCN)NC(=O)CN(CCN(CCN(CC(=O)O)CC(=O)O)CC(=O)O)CC(=O)O)C1CCN(C(=N)N)CC1)C(=O)N[C@@H](CC(C)C)C(=O)O (single isomer, unassigned) [In-111-DTPA-DK-P-G(PipAm)-R-P-Y-I-L, metal not drawn] | 19.5 | – | – | 16.6 | – | – | –
CC(C)C[C@H](NC(=O)[C@@H](NC(=O)[C@H](Cc1ccc(O)cc1)NC(=O)[C@@H]1CCCN1C(=O)[C@H](CCCNC(=N)N)NC(=O)C(NC(=O)[C@@H]1CCCN1C(=O)[C@@H](CCCCN)NC(=O)CN(CCN(CCN(CC(=O)O)CC(=O)O)CC(=O)O)CC(=O)O)C1CCN(C(=N)N)CC1)C(C)(C)C)C(=O)O (single isomer, unassigned) [In-111-DTPA-DK-P-G(PipAm)-R-P-Y-tBuG-L, metal not drawn] | – | – | – | – | – | – | remaining at 4 h ([1]; Table 4, human serum, read-out: Serum Stability, Serum (t = 4 h)): 87.5%; remaining at 4 h ([2]; Table 4, rat urine, read-out: Urine Stability, Urine (t = 4 h)): 63%
CC[C@H](C)[C@H](NC(=O)[C@H](Cc1ccc(O)cc1)NC(=O)[C@@H]1CCCN1C(=O)C(CCc1ccnc(N)n1)NC(=O)[C@H](CCCNC(=N)N)NC(=O)[C@@H]1CCCN1C(=O)[C@@H](CCCCN)NC(=O)CN(CCN(CCN(CC(=O)O)CC(=O)O)CC(=O)O)CC(=O)O)C(=O)N[C@@H](CC(C)C)C(=O)O (single isomer, unassigned) [In-111-DTPA-DK-P-R-Aba(Apy)-P-Y-I-L, metal not drawn] | 15.7 | 98.1 | 96.7 | 4.7 | – | – | –
CC[C@H](C)[C@H](NC(=O)[C@H](Cc1ccc(O)cc1)NC(=O)[C@@H]1CCCN1C(=O)C(Cc1ccc(NC(=N)N)cc1)NC(=O)[C@H](CCCNC(=N)N)NC(=O)[C@@H]1CCCN1C(=O)[C@@H](CCCCN)NC(=O)CN(CCN(CCN(CC(=O)O)CC(=O)O)CC(=O)O)CC(=O)O)C(=O)N[C@@H](CC(C)C)C(=O)O (single isomer, unassigned) [In-111-DTPA-DK-P-R-F(Gu)-P-Y-I-L, metal not drawn] | 16.3 | 94 | 90.4 | 0 | – | – | –
CC(C)C[C@H](NC(=O)[C@@H](NC(=O)[C@H](Cc1ccc(O)cc1)NC(=O)[C@@H]1CCCN1C(=O)[C@H](CCCNC(=N)N)NC(=O)[C@@H](NC(=O)[C@@H]1CCCN1C(=O)[C@H](C[C@H]1CC[C@H](CN)CC1)NC(=O)CN(CCN(CCN(CC(=O)O)CC(=O)O)CC(=O)O)CC(=O)O)C1CCN(C(=N)N)CC1)C(C)(C)C)C(=O)O [Compound XII, DTPA-trans-Cha(4-CH2NH2)-Pro-Gly(PipAm)-Arg-Pro-Tyr-tBuGly-Leu-OH] ({DTPA}-[X2]P[Gly(1-amidinopiperidin-4-yl)]RPY[Tle]L-OH) | – | – | – | – | 94.8 | 89.4 | –
CC(C)C[C@H](NC(=O)[C@@H](NC(=O)[C@H](Cc1ccc(O)cc1)NC(=O)[C@@H]1CCCN1C(=O)[C@H](CCCNC(=N)N)NC(=O)[C@@H](NC(=O)[C@@H]1CCCN1C(=O)[C@H](CC1CCNCC1)NC(=O)CN(CCN(CCN(CC(=O)O)CC(=O)O)CC(=O)O)CC(=O)O)C1CCN(C(=N)N)CC1)C(C)(C)C)C(=O)O [DTPA-(Pip)Ala-Pro-Gly(PipAm)-Arg-Pro-Tyr-tBuGly-Leu-OH] ({DTPA}-[Ala(piperidin-4-yl)]P[Gly(1-amidinopiperidin-4-yl)]RPY[Tle]L-OH) | – | – | – | – | 98.9 | 98.3 | –
CC[C@H](C)[C@H](NC(=O)[C@H](Cc1ccc(O)cc1)NC(=O)[C@@H]1CCCN1C(=O)[C@H](CCCNC(=N)N)NC(=O)[C@H](CCCNC(=N)N)NC(=O)CN(CCN(CCN(CC(=O)O)CC(=O)O)CC(=O)O)CC(=O)O)C(=O)N[C@@H](CC(C)C)C(=O)O [DTPA-Arg-Arg-Pro-Tyr-Ile-Leu-OH, reference compound] | – | – | – | – | 1.6 | 13.0 | % of compound present at 4 hours in serum ([1]; human serum, 37EC, 4 hours): 1.6%; % of compound present at 4 hours in urine ([2]; rat urine, 37EC, 4 hours): 13.0%
